These compounds were tested on progranulin (PGRN) secretion, BV-2 cells (assay: PGRN assay: progranulin induction cellular assay (ELISA of secreted mouse PGRN)). Details: not given.
Type: cell-based
Method: Cellular Assays: To measure the efficacy of compounds, a progranulin induction cellular assay in mouse primary microglia (pMG), primary cortical neurons, and BV-2 cell lines is used. BV-2 cells are split the day before plating into a 96 well plate format at approximately 80%. Cells should be plated the day before and allowed for 1 hour attachment period and for 16 hour incubation. […] Standard ELISA kits to measure PGRN are available from vendors such as Adipogen, R&D, and Biovendor.

SMILES | EC50 [nM]
CN1CCC([C@H]2c3ccccc3CCN2C(=O)O[C@@H]2CN3CCC2CC3)CC1=O (stereo partly drawn) [Compound 2024, (S)-quinuclidin-3-yl 1-(1-methyl-2-oxopiperidin-4-yl)-3,4-dihydroisoquinoline-2(1H)-carboxylate] | > 10000
O=C(O[C@@H]1CN2CCC1CC2)N1CCc2ccsc2C1c1ccc(F)cc1 (stereo partly drawn) [Compound 2122, (S)-quinuclidin-3-yl 7-(4-fluorophenyl)-4,7-dihydrothieno[2,3-c]pyridine-6(5H)-carboxylate] | 3280

Same assay, conditions: Mus musculus, BV-2

SMILES | EC50 [nM]
O=C(OCC12CCN(CC1)CC2)N1CCc2ccccc2[C@@H]1c1ccc(F)cc1 [Compound 2001] | 170
COC(=O)c1ccc2c(c1)CCN(C(=O)O[C@@H]1CN3CCC1CC3)[C@H]2c1ccc(F)cc1 [Compound 2086] | > 10000

Same assay, conditions: Mus musculus, BV-2, PGRN assay, Table C; secreted mouse PGRN in cell culture medium, ELISA

SMILES | EC50 [nM]
CS(=O)(=O)c1ccc2c(c1)CCN(C(=O)N[C@@H]1CN3CCC1CC3)[C@@H]2c1ccc(F)cc1 [Compound 2041, 1-(4-fluorophenyl)-6-(methylsulfonyl)-N—((S)-quinuclidin-3-yl)-3,4-dihydroisoquinoline-2(1H)-carboxamide] | > 10000
O=C(OCC12CCN(CC1)CC2)N1CCc2ccccc2[C@@H]1c1ccc(F)c(F)c1 [Compound 2110] | 7820
O=C(CCC12CCN(CC1)CC2)N1CCc2ccccc2[C@@H]1c1ccc(F)cc1 [Compound 2037] | > 8090
O=C1C[C@H](COC(=O)N2CCc3ccccc3[C@@H]2c2ccc(F)cc2)CCN1 (single isomer, unassigned) [Compound 2185, (1 S)-(2-oxopiperidin-4-yl)methyl 1-(4-fluorophenyl)-3,4-dihydroisoquinoline-2(1H)-carboxylate] | > 10000
CO[C@H](CC12CCN(CC1)CC2)C(=O)N1CCc2ccccc2[C@@H]1c1ccc(F)cc1 [Compound 2028] | > 10000
C#CCOCCN1CCC(COC(=O)N2CCc3ccccc3[C@@H]2c2ccc(F)cc2)CC1 [Compound 2196, (1-(2-(prop-2-yn-1-yloxy)ethyl)piperidin-4-yl)methyl (S)-1-(4-fluorophenyl)-3,4-dihydroisoquinoline-2(1H)-carboxylate] | > 10000
CN1C[C@H]2CC[C@@H](C1)[C@H]2OC(=O)N1CCc2ccccc2[C@@H]1c1ccc(F)cc1 [Compound 2008] | 559
CN1CCC(COC(=O)N2CCc3ccccc3[C@@H]2c2cc(F)cc(F)c2)CC1 [Compound 2108] | > 3160
COc1ccc(COc2ccc([C@H]3c4ccccc4CCN3C(=O)OCC34CCN(CC3)CC4)cc2)cc1 [Compound 2136] | > 3160
O=C(O[C@H]1[C@@H]2CC[C@H]1CNC2)N1CCc2ccccc2[C@@H]1c1ccc(F)cc1 (single isomer, unassigned) [Compound 2102] | 278
O=C(O[C@@H]1CCNC1)N1CCc2ccccc2[C@@H]1c1ccc(F)cc1 [Compound 2179, (1S)—((R)-pyrrolidin-3-yl)-1-(4-fluorophenyl)-3,4-dihydroisoquinoline-2(1H)-carboxylate] | 120
CN1C[C@@H]2CC[C@H](OC(=O)N3CCc4ccccc4[C@@H]3c3ccc(F)cc3)[C@@H]2C1 (relative stereo) [Compound 2062, (1 S)-(rel-(3′aR,6′aS)-2′-methyloctahydrocyclopenta[c]pyrrol-4-yl)-1-(4-fluorophenyl)-3,4-dihydroisoquinoline-2(1H)-carboxylate] | 1120
CN1CCO[C@H](COC(=O)N2CCc3ccccc3[C@@H]2c2ccc(F)cc2)C1 [Compound 2004] | 1050
CN1CCO[C@@H](COC(=O)N2CCc3ccccc3[C@@H]2c2ccc(F)cc2)C1 [Compound 2005] | 587
C#CCOc1ccc2c(c1)CCN(C(=O)OCC13CCN(CC1)CC3)[C@H]2c1ccc(F)cc1 [Compound 2078] | 5350
O=C(CO[C@@H]1CN2CCC1CC2)N1CCc2ccccc2[C@@H]1c1ccc(F)cc1 [Compound 2009] | 811
O=C(OCC12CCN(CC1)CC2)N1CCc2ccccc2[C@H]1c1cccc(F)c1F [Compound 2113] | 596
COCCOCCOc1ccc(COc2ccc([C@@H]3c4ccccc4CCN3C(=O)OCC34CCN(CC3)CC4)cc2)cc1 [Compound 2047] | > 2690
O=C(OCCC12CCN(CC1)CC2)N1CCc2ccccc2[C@@H]1c1ccc(F)cc1 [Compound 2130, 2-(quinuclidin-4-yl)ethyl (S)-1-(4-fluorophenyl)-3,4-dihydroisoquinoline-2(1H)-carboxylate] | > 3160
COC(=O)c1ccc2c(c1)[C@H](c1ccc(F)cc1)N(C(=O)NCC13CCN(CC1)CC3)CC2 [Compound 2117, methyl (S)-1-(4-fluorophenyl)-2-((quinuclidin-4-ylmethyl)carbamoyl)-1,2,3,4-tetrahydroisoquinoline-7-carboxylate] | > 10000
O=C(C(O)[C@@H]1CN2CCC1CC2)N1CCc2ccccc2[C@@H]1c1ccc(F)cc1 (stereo partly drawn) [Compound 2074, 1-((S)-1-(4-fluorophenyl)-3,4-dihydroisoquinolin-2(1H)-yl)-2-hydroxy-2-(quinuclidin-3-yl)ethanone] | 3400
COc1ccc(COc2ccc([C@@H]3c4ccccc4CCN3C(=O)OCC34CCN(CC3)CC4)cc2)cc1 [Compound 2137] | > 3160

Same assay, conditions: Mus musculus, BV-2, PGRN assay, Table D; secreted mouse PGRN in cell culture medium, ELISA

EC50 [nM] | SMILES
319 | CC1(C)CNC[C@H]1NC(=O)N1CCc2ccccc2[C@@H]1c1ccc(F)cc1 [Compound 2273]
515 | CN1CC[C@H](N(C)C(=O)N2CCc3ccccc3[C@@H]2c2ccc(F)cc2)C1 [Compound 2270, (S)-1-(4-fluorophenyl)-N-methyl-N—((S)-1-methylpyrrolidin-3-yl)-3,4-dihydroisoquinoline-2(1H)-carboxamide]
453 | CN1C[C@H](NC(=O)N2CCc3ccccc3[C@H]2c2ccc(F)cc2)C2(CC2)C1 [Compound 2316]
> 10000 | CN1CCC(OC2(C(=O)N3CCc4ccccc4[C@@H]3c3ccc(F)cc3)CC2)CC1 [Compound 2247]
806 | N[C@H]1CCN(C(=O)N2CCc3ccccc3[C@@H]2c2ccc(F)cc2)C1 [Compound 2284]
2700 | CN1CCC(C2(OC(=O)N3CCc4ccccc4[C@@H]3c3ccc(F)cc3)CC2)CC1 [Compound 2215]
2330 | CN1CC[C@H](O)[C@@H](O)[C@@H]1COC(=O)N1CCc2ccccc2[C@@H]1c1ccc(F)cc1 (single isomer, unassigned) [Compound 2304]
5870 | CN1CC[C@H](O)[C@@H](OC(=O)N2CCc3ccccc3[C@@H]2c2ccc(F)cc2)[C@@H]1CO (single isomer, unassigned) [Compound 2305]
286 | CN1CC[C@@H](N(C)C(=O)N2CCc3ccccc3[C@@H]2c2ccc(F)cc2)C1 [Compound 2265]
110 | CN(C(=O)N1CCc2ccccc2[C@@H]1c1ccc(F)cc1)[C@@H]1CCNC1 [Compound 2253, 1-(4-fluorophenyl)-N-methyl-((R)-pyrrolin-3-yl)-3,4-dihydroisoquinoline-2(1H)-carboxamide]
> 10000 | CN(C(=O)N1CCc2ccccc2[C@@H]1c1ccc(F)cc1)[C@H]1CNCC1(F)F [Compound 2297, (S)—N—((S)-4,4-difluoropyrrolidin-3-yl)-1-(4-fluorophenyl)-N-methyl-3,4-dihydroisoquinoline-2(1H)-carboxamide]
3940 | O=C(NC[C@@H]1CCCN1)N1CCc2ccccc2[C@@H]1c1ccc(F)cc1 [Compound 2217]
270 | O=C(OCC1(F)CNC1)N1CCc2ccccc2[C@@H]1c1ccc(F)cc1 [Compound 2258]
130 | O=C(N[C@H]1CNC[C@@H]1F)N1CCc2ccccc2[C@@H]1c1ccc(F)cc1 [Compound 2351, (S)-1-(4-fluorophenyl)-N-((3S,4S)-4-fluoropyrrolidin-3-yl)-3,4-dihydroisoquinoline-2(1H)-carboxamide]
656 | CN1CCCN(C(=O)N2CCc3ccccc3[C@@H]2c2ccc(F)cc2)CC1 [Compound 2269, (S)-(1-(4-fluorophenyl)-3,4-dihydroisoquinolin-2(1H)-yl)(4-methyl-1,4-diazepan-1-yl)methanone]
346 | O=C(O[C@@H]1CNC[C@H]1F)N1CCc2ccccc2[C@@H]1c1ccc(F)cc1 [Compound 2349, (3R,4R)-4-fluoropyrrolidin-3-yl (S)-1-(4-fluorophenyl)-3,4-dihydroisoquinoline-2(1H)-carboxylate]
2940 | O=C(NCC1CNC[C@@H]1O)N1CCc2ccccc2[C@@H]1c1ccc(F)cc1 (stereo partly drawn) [Compound 2308, (S)-1-(4-fluorophenyl)-N-((cis-4-hydroxypyrrolidin-3-yl)methyl)-3,4-dihydroisoquinoline-2(1H)-carboxamide]
> 3160 | O=C(O[C@H]1CNC[C@H]1F)N1CCc2ccccc2[C@@H]1c1ccc(F)cc1 [Compound 2362]

The next lines start with the compound.

SMILES | EC50 [nM]
CN(C(=O)N1CCc2ccccc2[C@@H]1c1ccc(F)cc1)[C@@H]1CCCNC1 (single isomer, unassigned) [Compound 2213] | 3530
CN1[C@H]2CC[C@@H]1[C@H](NC(=O)N1CCc3ccccc3[C@@H]1c1ccc(F)cc1)C2 (single isomer, unassigned) [Compound 2225] | 1010
O=C(N1CCN2CCC1CC2)N1CCc2ccccc2[C@@H]1c1ccc(F)cc1 [Compound 2252] | 120
CN(C(=O)N1CCc2ccccc2[C@@H]1c1ccc(F)cc1)[C@H]1CCCNC1 (single isomer, unassigned) [Compound 2211] | 3030

Same assay, conditions: PGRN assay, Table C; secreted mouse PGRN in cell culture medium, ELISA

SMILES | EC50 [nM]
O=C(OC1CCNCC1)N1CCc2ccccc2[C@@H]1c1ccc(F)cc1 [Compound 2161] | > 10000

Same assay, conditions: PGRN assay, Table D; secreted mouse PGRN in cell culture medium, ELISA

SMILES | EC50 [nM]
CN(C(=O)N1CCc2ccccc2[C@H]1c1ccc(F)cc1)[C@H]1CCNC1 (single isomer, unassigned) [Compound 2249] | > 10000
CN(C(=O)N1CCc2ccccc2[C@H]1c1ccc(F)cc1)[C@H]1CCNC1 [Compound 2254] | 2910
